Where a name gives a salt, the structure may show the parent alone. Read-outs that look alike come from different tables or passages of the source.
Legend:
Type in all cases: in vivo
[1] = system: Male mice of ddY strain; test: Test 1 Anti-nicotine activity (inhibition of nicotine-induced convulsive death); conditions: 200 mg/kg po, nicotine 2 mg/kg iv after 1 h, observed 1 h; for responders at 200 mg/kg: Mus musculus
Method: Male mice of ddY strain, weighing 28 to 33 g, were used in groups of eight or twelve. The test compounds were dissolved in distilled water and administered orally in a dose of 200 mg/kg. After an hour, nicotine was intravenously administered in a dose of 2 mg/kg.

[2] = system: Male mice of ddY strain; test: Test 2 Anti-tremorine activity (inhibition of tremorine-induced tremor); conditions: for responders at 50 mg/kg: Mus musculus, po, read-out: Inhibition of tremor (%)
Method: Male mice of ddY strain, weighing 28 to 32 g, were used in groups of eight or ten. The test compounds were dissolved in distilled water and administered orally in a dose of 50 mg/kg. After 30 minutes, tremorine dihydrochloride was subcutaneously administered in a dose of 20 mg/kg. Then, the occurrence of tremor was observed after the lapse of 30 and 60 minutes.

[3] = system: Male mice of ddY strain; test: Test 3 Muscle relaxant activity (traction test, method of Courvoisier et al.); conditions: 15 minutes after administration, groups of ten
Method: Male mice of ddY strain, weighing 30 to 37 g, were used in groups of ten. The test compounds were dissolved in physiological saline and administered intraperitoneally in a dose of 50 or 75 mg/kg. […] This method involves a traction test in which the animal is hung by its forelimbs on a horizontal metal rod (2 mm in diameter) placed 20 cm above the floor and examined as to whether it can put its hindlimb on the rod or not.
Specifically, 15 minutes after administration of a test compound, the mouse was hung on the rod by its forelimbs. […] It had been confirmed in preliminary tests that, under normal conditions, all the mice could put their hindlimb on the rod within 5 seconds.

[4] = system: Male rats of Wistar strain; test: Test 4 Effect on decerebrate rigidity induced by transection between superior and inferior colliculi
Method: Male rats of Wistar strain, weighing 300 to 400 g, were used. The test compounds were dissolved in physiological saline and administered intravenously in doses of 10 mg/kg and 20 mg/kg.
Rigidity preparations were made according to the method of Fukuda et al. [The Japanese Journal of Pharmacology, 22, 457 (1972)]. Specifically, after a rat was fixed in a prone position under ether anesthesia, an incision was made in the head. The skull was removed around the occipital region to expose the brain. […] More than 2 hours after operation, the rat was mounted in a supine position on a fixing stand. Thus, the effect of the test compounds was evaluated by using the occurrence of rigidity in the antigravity muscles of the limbs as an index.

[5] = Test 5 Acute toxicity (LD50, method of Behrens and Kärbar); conditions: mouse, in vivo, mice, observed for 7 days
Method: (§1) Male mice of ddY strain, weighing 25 to 30 g, were used in groups of five. The test compounds were dissolved in distilled water and administered orally in various doses. […] Then, the LDso was calculated according to the method of Behrens and Kärbar.

[6] = system: Male mice of ddY strain; test: as above; conditions: Table-5a, observed for 7 days
Method: as §1

[7] = Table-3d, 50 mg/kg po, After 30 min., 10 animals used
[8] = Table-3d, 50 mg/kg po, After 60 min., 10 animals used
[9] = po, 1 h, Table-2c, 12 animals used
[10] = 0.5 h, Table-3d, 50 mg/kg po, After 30 min., 10 animals used
[11] = 1 h, Table-3d, 50 mg/kg po, After 60 min., 10 animals used
[12] = Table-3a, 50 mg/kg po, After 30 min. from tremorine 20 mg/kg sc, 8 animals used
[13] = Table-3a, 50 mg/kg po, After 60 min. from tremorine 20 mg/kg sc, 8 animals used

Molecule: CC(CN1CCCC1)C(=O)c1ccc2c(c1)CCO2.Cl (stereo not shown) [Example 92, 1-(2,3-Dihydro-5-benzofuranyl)-2-methyl-3-(1-pyrrolidinyl)-1-propanone hydrochloride]
- responders at 200 mg/kg ([1]; Table-2c, 12 animals used): 75%
- Number of surviving animals ([1]; Table-2c, 12 animals used): 9
- responders at 50 mg/kg ([2]; 0.5 h): 100%
- responders at 50 mg/kg ([2]; 1 h): 100%
- Number of animals exhibiting no tremor [2, 7]: 10
- Number of animals exhibiting no tremor [2, 8]: 10
- Number of animals exhibiting muscle relaxation ([3]; Table-4d, 75 mg/kg ip): 6
- rigidity of the forelimbs and hindlimbs ([4]; 20 mg/kg intravenously): relaxed the rigidity similarly
- LD50 at 168 h ([5]; Table-5c, oral): 685 mg/kg

Molecule: CCC(CN1CCCCC1)C(=O)c1ccc2c(c1)OCO2.Cl (stereo not shown) [Example 53, 2-Ethyl-1-(3,4-methylenedioxyphenyl)-3-piperidino-1-propanone hydrochloride]
- responders at 200 mg/kg ([1]; po, 1 h, Table-2b, 12 animals used): 83.3%
- Number of surviving animals ([1]; Table-2b, 12 animals used): 10
- rigidity of the forelimbs and hindlimbs ([4]; 20 mg/kg intravenously): relaxed the rigidity similarly
- LD50 at 168 h ([5]; po, Table-5b): 565 mg/kg

Molecule: CC(CN1CCCCC1)C(=O)c1ccc2c(c1)OCO2.Cl (stereo not shown) [Example 57, 2-Methyl-1-(3,4-methylenedioxyphenyl)-3-piperidino-1-propanone hydrochloride]
- responders at 200 mg/kg ([1]; Table-2b, 12 animals used): 41.7%
- Number of surviving animals ([1]; Table-2b, 12 animals used): 5
- rigidity of the forelimbs and hindlimbs ([4]; 20 mg/kg intravenously): relaxed the rigidity similarly
- LD50 at 168 h ([5]; Table-5b, oral): 625 mg/kg

Molecule: CC(CN1CCCCC1)C(=O)c1ccc2c(c1)CCO2.Cl (stereo not shown) [Example 85, 1-(2,3-Dihydro-5-benzofuranyl)-2-methyl-3-piperidino-1-propanone hydrochloride]
- responders at 200 mg/kg [1, 9]: 66.7%
- Number of surviving animals ([1]; Table-2c, 12 animals used): 8
- responders at 50 mg/kg [2, 10]: 100%
- responders at 50 mg/kg [2, 11]: 100%
- Number of animals exhibiting no tremor [2, 7]: 10
- Number of animals exhibiting no tremor [2, 8]: 10
- Number of animals exhibiting muscle relaxation ([3]; Table-4d, 75 mg/kg ip): 8
- rigidity of the forelimbs and hindlimbs ([4]; 20 mg/kg intravenously): relaxed the rigidity similarly
- LD50 at 168 h ([5]; po, Table-5c): 625 mg/kg

Molecule: CCCC(CN1CCCCC1)C(=O)c1ccc2c(c1)OCO2 (stereo not shown) [Example 66, 1-(3,4-Methylenedioxyphenyl)-2-n-propyl-3-piperi-dino-1-propanone hydrochloride]
- responders at 200 mg/kg ([1]; Table-2b, 12 animals used): 58.3%
- Number of surviving animals ([1]; Table-2b, 12 animals used): 7
- rigidity of the forelimbs and hindlimbs ([4]; 20 mg/kg intravenously): relaxed the rigidity similarly
- LD50 at 168 h ([5]; Table-5b, oral): 625 mg/kg

Molecule: CC(CN1CCCCCC1)C(=O)c1ccc2c(c1)CCO2.Cl (stereo not shown) [Example 93, 1-(2,3-Dihydro-5-benzofuranyl)-2-methyl-3-(hexahydro-1H-azepin-1-yl)-1-propanone hydrochloride]
- responders at 200 mg/kg [1, 9]: 58.3%
- Number of surviving animals ([1]; Table-2c, 12 animals used): 7
- responders at 50 mg/kg [2, 10]: 100%
- responders at 50 mg/kg [2, 11]: 100%
- Number of animals exhibiting no tremor [2, 7]: 10
- Number of animals exhibiting no tremor [2, 8]: 10
- Number of animals exhibiting muscle relaxation ([3]; Table-4d, 75 mg/kg ip): 6
- rigidity of the forelimbs and hindlimbs ([4]; 20 mg/kg intravenously): relaxed the rigidity similarly
- LD50 at 168 h ([5]; po, Table-5c): 685 mg/kg

Molecule: 1-(4-Cyclopropylphenyl)-2-methyl-3-piperidino-1-propanone hydrochloride [Example 1]
- Inhibition of death (%) ([1]; Table-2a, 8 animals used): 100.0%
- Number of surviving animals ([1]; Table-2a, 8 animals used): 8
- Inhibition of tremor (%) [2, 12]: 100%
- Number of animals exhibiting no tremor [2, 12]: 8
- Inhibition of tremor (%) [2, 13]: 87.5%
- Number of animals exhibiting no tremor [2, 13]: 7
- Muscle relaxation rate (%) ([3]; Table-4a, 50 mg/kg ip): 60%
- Number of animals exhibiting muscle relaxation ([3]; Table-4a, 50 mg/kg ip): 6
- rigidity of the forelimbs and hindlimbs ([4]; 10 mg/kg intravenously): relaxed the rigidity of the forelimbs and hindlimbs to a significant degree
- Acute toxicity LD50 (mg/kg,po) [6]: 535 mg/kg

— patent EP0163537A1, “1-Propanone derivatives and pharmaceutical compositions containing same” (priority 1984, dated 1985)
